Tested on: HIV-1 LTR
Assay: ChIP assay on HIV-1 LTR in TSA treated TZM-bl cells
Format: cell-based
Conditions: TZM-bl after TSA treatment
Experimental: Primers specific for the HIV-1 LTR were used to amplify DNA that was precipitated with each antibody. Lane 1 indicates basal levels of repressive markers on the HIV-1 LTR.
TZM-bl cells were treated with TSA for 7 days and processed for ChIP. For ChIP, approximately 5×10^6 cells were used per IP. ChIP assays were performed as previously described. PCR was performed using 0.1 μM of HIV-1 LTR primers (Klase et al, 2007; Guendel et al, 2009; Easley et al, 2010).
To observe the effect of drug on heterochrmatin formation, the present inventor used a ChIP assay. Briefly, TZM-bl cells were treated with TSA (FIGS. 16 and 17), and then treated with CR8#13.

SMILES: CC(C)c1cnn2c(NCc3ccc(-c4ccccn4)cc3)nc(NC[C@H](O)CO)nc12.O=C(O)/C=C/C(=O)O [BJFP1154]
- recruitment of HDAC1, Ago2, Suv39H1 to the HIV-1 promoter (ChIP): re-recruitment of heterochromatin markers

— US20120149708A1, “MODULATORS OF VIRAL TRANSCRIPTION, AND METHODS AND COMPOSITIONS THEREWITH” (George Mason University, priority 2010, published 2012)
